Numbering of substitutions follows the chain as printed. Numbers in names are those of the source.
B1: PfPGI mutant P132R/Y133G (cupin-type phosphoglucose isomerase of Pyrococcus furiosus) (enzyme)
chain: MYKEPFGVKVDFETGIIEGAKKSVRRLSDMEGYFVDERAWKELVEKEDPVVYEVYAVEQEEKEGDLNFATTVLYPGKVGKEFFFTKGHFHAKLDRAEVYVALKGKGGMLLQTPEGDAKWISMEPGTVVYVPRGWAHRTVNIGDEPFIFLAIYPADAGHDYGTIAEKGFSKIVIEENGEVKVVDNPRWKK
notes: cupin-type phosphoglucose isomerase (PfPGI, EC 5.3.1.9), gene pgiA, Pyrococcus furiosus; monomeric subunit 21.5 kDa; the models have no missing residues, residues up to Lys189 are named; Crystallised with MnCl2 and F6P; 5PAA found in the active site; also called RG; mutant RG; source: E. coli (pET24d), overexpressed and purified as described previously [32]
B2: PfPGI mutant P132V (cupin-type phosphoglucose isomerase of Pyrococcus furiosus) (enzyme)
chain: B1 chain with R132V, G133Y
notes: cupin-type phosphoglucose isomerase (PfPGI, EC 5.3.1.9), gene pgiA, Pyrococcus furiosus; monomeric subunit 21.5 kDa; the models have no missing residues, residues up to Lys189 are named; Crystals grown with MnCl2 and soaked with F6P; also called VY; mutant VY; source: E. coli (pET24d), overexpressed and purified as described previously [32]
B3: PfPGI mutant P132A/Y133D (cupin-type phosphoglucose isomerase of Pyrococcus furiosus) (enzyme)
chain: B1 chain with R132A, G133D
notes: cupin-type phosphoglucose isomerase (PfPGI, EC 5.3.1.9), gene pgiA, Pyrococcus furiosus; monomeric subunit 21.5 kDa; the models have no missing residues, residues up to Lys189 are named; Structure holds only Mn2+ in the active site; also called AD; mutant AD; source: E. coli (pET24d), overexpressed and purified as described previously [32]
B4: PfPGI mutant P132A/Y133G (cupin-type phosphoglucose isomerase of Pyrococcus furiosus) (enzyme)
chain: B1 chain with R132A
notes: cupin-type phosphoglucose isomerase (PfPGI, EC 5.3.1.9), gene pgiA, Pyrococcus furiosus; monomeric subunit 21.5 kDa; the models have no missing residues, residues up to Lys189 are named; Crystallised with MnCl2 and F6P; 5PAA found in the active site; The two subunits of the dimer are related by crystal symmetry; also called AG; mutant AG; source: E. coli (pET24d), overexpressed and purified as …

Legend:
[1] = target: T1, PfPGI (cupin-type phosphoglucose isomerase) (Pyrococcus furiosus, UniProt P83194, P132R/Y133G); assay: X-ray crystal structure; type: binding; settings: Mn2+ in active site; 5PAA formed from F6P in the crystallization solution; pH 5.5
T1 construct: gene pgiA; pgiA in pET24d, expressed in E. coli, heat treatment plus Q-Sepharose and Superdex 200

[2] = target: T1, PfPGI (cupin-type phosphoglucose isomerase); assay: EPR of Mn2+ coordination on adding F6P; type: binding; settings: 10 mM F6P, 0.2 mM MnCl2, pH 8.0; spectra at 13 K
[3] = target: T2, PfPGI (cupin-type phosphoglucose isomerase) (Pyrococcus furiosus, UniProt P83194, P132A/Y133D); assay: EPR of Mn2+ coordination on adding F6P; type: binding; settings: 10 mM F6P, 0.2 mM MnCl2, pH 8.0; spectra at 13 K; F6P not seen in the crystal structure
T2 construct: gene pgiA; pgiA in pET24d, expressed in E. coli, heat treatment plus Q-Sepharose and Superdex 200
T2 sequence (P83194 whole entry P132A/Y133D): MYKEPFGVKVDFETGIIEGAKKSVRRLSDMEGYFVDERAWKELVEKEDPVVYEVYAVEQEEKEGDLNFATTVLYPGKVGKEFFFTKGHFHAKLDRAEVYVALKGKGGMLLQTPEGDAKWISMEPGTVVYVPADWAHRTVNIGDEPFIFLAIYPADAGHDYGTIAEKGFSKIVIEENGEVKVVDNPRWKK

[4] = target: T3, PfPGI (cupin-type phosphoglucose isomerase) (Pyrococcus furiosus, UniProt P83194, P132A/Y133G); assay: EPR of Mn2+ coordination on adding F6P; type: binding; settings: 10 mM F6P, 0.2 mM MnCl2, pH 8.0; spectra at 13 K
T3 construct: gene pgiA; pgiA in pET24d, expressed in E. coli, heat treatment plus Q-Sepharose and Superdex 200
T3 sequence (P83194 whole entry P132A/Y133G): as the sequence (P83194 whole entry P132A/Y133D) above, with D133G counted along it

[5] = target: the molecule itself; assay: crystal structure; PfPGI mutants at 11.5 mg/mL in 10 mM Tris/HCl pH 8.0, 50 mM F6P, 5 mM MnCl2; molecular replacement with wild-type PfPGI (PDB 1X82); RG, AD and VY with chains A and B, AG with the two subunits related by crystal symmetry

Molecule | binding result [5] | further results
O=C(O)[C@@H](O)[C@H](O)[C@H](O)COP(=O)(O)O [5PAA, 5-phosphoarabinonic acid] |  | X-ray crystal structure [1]: 5-phosphoarabinonic acid (5PAA), rather than F6P (as added to the crystallization mixture) was bound
O=P(O)(O)OC[C@H]1OC(O)(CO)[C@@H](O)[C@@H]1O (some centres unmarked) [F6P, fructose-6-phosphate] |  | EPR of Mn2+ coordination on adding F6P [2]: addition of F6P to any of the manganese-containing PfPGI mutants lead to a collapse; EPR of Mn2+ coordination on adding F6P [3]: addition of F6P to any of the manganese-containing PfPGI mutants lead to a collapse; EPR of Mn2+ coordination on adding F6P [4]: addition of F6P to any of the manganese-containing PfPGI mutants lead to a collapse
B1 | binds | 
B2 | binds | 
B3 | binds | 
B4 | binds | 
